According to PubChem BioAssay AID1996:
Converted amounts (≈) assume the structure as drawn.

Conditions: buffer; pH 7.4; 200.0 µM

Compound	solubility kinetic
C/C(=N\NC(=O)c1cc(C)nc2ccccc12)c1ccco1	> 44 µg/mL
C=C(C)CN1C(=O)C(=O)N(CC(=C)C)C1=O	> 33.3 µg/mL
COc1ccc(C(C)(C)C)cc1NC(=O)COC(=O)CN1C(=O)NC2(CCCCC2C)C1=O (stereo not drawn)	38 µg/mL (≈ 82.7 µM)
CC(OC(=O)c1ccc(Cl)nc1)C(=O)NC1CCCC1 (stereo not drawn)	24.7 µg/mL (≈ 83.2 µM)
CCC1(C)Cc2c(sc3nc(SC)[nH]c(=S)c23)CO1 (stereo not drawn)	8.9 µg/mL (≈ 28.5 µM)
Cc1ccc(NC(=O)CCN2CC(C)OC(C)C2)cc1.Cl (stereo not drawn)	> 46.9 µg/mL
NS(=O)(=O)c1ccc(CNC(=O)c2ccc(C(=O)c3ccccc3)cc2)cc1	14.6 µg/mL (≈ 37 µM)
O=C1c2cccc3cccc(c23)C(=O)N1c1cccc(O)c1	1.3 µg/mL (≈ 4.49 µM)
Cc1sc(NC(=O)Nc2ccccc2)c(C(N)=O)c1C	5.1 µg/mL (≈ 17.6 µM)
CC(=O)N1CCN(c2cc(N3CCCC3)c(F)cc2[N+](=O)[O-])CC1	> 50.5 µg/mL
CCCC(C)C(=O)Nc1ccc(S(=O)(=O)N2CCCC2)cc1 (stereo not drawn)	> 48.7 µg/mL
COc1ccc(N(C(C)C(=O)N2CCCC2)S(C)(=O)=O)cc1 (stereo not drawn)	> 49 µg/mL
S=C(NCc1ccccc1)Nc1cccc2ccccc12	3.8 µg/mL (≈ 13 µM)
CCOc1ccc(N2CC(C(=O)NC3CCCC3)CC2=O)cc1 (stereo not drawn)	> 47.5 µg/mL
CC(C(=O)NC1CCCCC1)N1C(=O)C2C3C=CC(C3)C2C1=O (stereo not drawn)	> 47.5 µg/mL
CCn1c(=O)c(C(=O)NCc2ccc3c(c2)OCO3)c(O)c2ccccc21	< 0.4 µg/mL
O=C1N(CN2CCOCC2)c2ccccc2C12OCC(CCl)O2 (stereo not drawn)	49.6 µg/mL (≈ 146 µM)
COc1ccc(NC(=O)NCc2ccco2)cc1OC	37.6 µg/mL (≈ 136 µM)
CC1CCCCC1NC(=O)COC(=O)c1ccc2ccccc2n1 (stereo not drawn)	7.1 µg/mL (≈ 21.8 µM)
O=C(/C=C/NCc1cccnc1)C(F)(F)C(F)(F)F	> 42 µg/mL
CC(C)CC(=O)N1CCN(C(=O)c2ccco2)CC1	> 39.6 µg/mL
O=C1CSC(c2ccccc2)N1Cc1ccccn1 (stereo not drawn)	> 40.6 µg/mL
CC1(C)Cc2cccc(C(=O)Nc3ccc(Cl)cc3)c2O1	2.4 µg/mL (≈ 7.95 µM)
CC(C)CC1(C)NC(=O)N(CC(=O)Nc2ccc3c(c2)OCCO3)C1=O (stereo not drawn)	> 54.2 µg/mL

Compound	solubility kinetic
O=C(Nc1ccncc1)Nc1cccc(Cl)c1	35.9 µg/mL (≈ 145 µM)
CC(C)CCNC(=O)COc1ccc(C(=O)c2ccccc2)cc1	13.5 µg/mL (≈ 41.5 µM)
CCN1CCN(C(=O)c2[nH]c3ccc(OC)cc3c2C)CC1	> 45.2 µg/mL
O=C(NC1C2CC3CC(C2)CC1C3)c1ccc2c(c1)OCO2 (stereo not drawn)	7.9 µg/mL (≈ 26.4 µM)
CC(=O)NC(Cc1ccc(O)cc1)C(=O)NN (stereo not drawn)	> 35.6 µg/mL
O=[N+]([O-])c1ccc(COP(=O)([O-])OCc2ccc([N+](=O)[O-])cc2)cc1.[Na+]	58.2 µg/mL
O=C(CCl)Nc1ccccc1C(=O)c1ccccc1	> 41.1 µg/mL
CC1(C)OC(C)(C)/C(=C\c2ccccc2[N+](=O)[O-])C1=O	27.7 µg/mL (≈ 101 µM)
COCCCNc1nc(N)c([N+](=O)[O-])c(NCC2CCCO2)n1 (stereo not drawn)	> 49 µg/mL
O=S(=O)(c1ccc2c(c1)CCCC2)N1CCNCC1	> 42.1 µg/mL
NC(=NC(=O)c1cccc(C(F)(F)F)c1)c1ccc(C(F)(F)F)cn1	0.9 µg/mL (≈ 2.49 µM)
CC(=O)c1cccc(NC(=S)N2c3ccccc3CC2C)c1 (stereo not drawn)	1.4 µg/mL (≈ 4.51 µM)
COc1ccc(/C=C/C(=O)OCC(=O)NC2CC2)c(OC)c1	> 45.8 µg/mL
O=C1CN=C(c2ccccc2)c2cc([N+](=O)[O-])ccc2N1	> 42.2 µg/mL
COc1ccc(/C(C)=N/NC2=NCCN2)cc1Cl	> 40 µg/mL
Cc1ccc(C(O)CCc2ccc(N)cc2)cc1 (stereo not drawn)	31.9 µg/mL (≈ 132 µM)
CC(C)(C)OC(=O)NCCNC(=O)c1cccs1	> 40.6 µg/mL
O=C(Nc1ccccc1N1CCOCC1)c1ccc(Cl)nc1	> 47.7 µg/mL
Cc1ccsc1C(=O)OCC(=O)N(Cc1ccccc1)C(C)C	40.2 µg/mL (≈ 121 µM)
O=C(Nc1ccncc1)Nc1cccc(F)c1	> 34.7 µg/mL
COc1cc2nc(NC(=O)c3ccc(Cl)cc3)sc(=O)c2cc1OC	3.7 µg/mL (≈ 9.82 µM)
N#C/C(=C/c1cccs1)c1ccccn1	7 µg/mL (≈ 33 µM)
CCN(CC(=O)NCc1cccs1)C(=O)c1ccc(Cl)c(Cl)c1	> 55.7 µg/mL
COc1ccccc1CN1CCCC(CNC(=O)c2cccc3ccccc23)C1 (stereo not drawn)	49.5 µg/mL (≈ 127 µM)

Compound	solubility kinetic
CC(=O)Nc1ccc(C(=O)Nc2ccncc2)cc1	31.6 µg/mL (≈ 124 µM)
CC(C)(C)c1ccc(N2C(=O)CC(c3ccccc3)C2=O)cc1 (stereo not drawn)	< 0.7 µg/mL
O=[N+]([O-])c1ccc(Cl)c(S(=O)(=O)NCCc2ccccn2)c1	> 51.3 µg/mL
CC1(C)Oc2ccc3ccc(=O)oc3c2C(/C=N/O)=C1Cl	12.5 µg/mL (≈ 40.9 µM)
Clc1ccc2c(c1)CCc1cccnc1C2=C1CCNCC1	21.6 µg/mL (≈ 69.5 µM)
CNc1nc(C)c([N+](=O)[O-])c(Nc2ccc(OC)cc2)n1	0.5 µg/mL (≈ 1.73 µM)
Cc1nc(SCc2ccc(C(=O)O)cc2)c2c(C)c(C)sc2n1	49.5 µg/mL (≈ 144 µM)
COC(=O)c1ccc(Oc2nc(NC(C)C)nc(NC(C)C)n2)cc1	1.4 µg/mL (≈ 4.05 µM)
N/C(CSc1ncccc1C(F)(F)F)=N\O	> 37.7 µg/mL
CC(=O)O.O=C(NCC1CCCCN1)c1cc(OCC(F)(F)F)ccc1OCC(F)(F)F (stereo not drawn)	> 71.2 µg/mL
O=C(NCc1ccccc1)c1cc[n+](Cc2ccccc2)cc1.[Cl-]	49.7 µg/mL
Cc1ccc(N2C(=O)c3cccc([N+](=O)[O-])c3C2=O)cc1C	23.3 µg/mL (≈ 78.6 µM)
COC(=O)c1ccccc1NC(=O)CN1CCCCCC1	31.6 µg/mL (≈ 109 µM)
CC(=O)NN1CCc2cc3ccc(C)cc3nc21	> 36.2 µg/mL
O=C(Oc1ccc(Cl)cc1)N1CCOCC1	> 36.3 µg/mL
COCCOC(=O)c1sc2nc[nH]c(=O)c2c1C	> 40.2 µg/mL
CN(c1ccc(C(=O)N2CCCCC2)cc1)S(=O)(=O)c1cccs1	52.7 µg/mL (≈ 145 µM)
Cn1cccc1C(=O)OCC(=O)NCCc1ccc(S(N)(=O)=O)cc1	> 54.8 µg/mL
CC(=O)N1CCN(C(=O)c2ccco2)CC1	> 33.3 µg/mL
CC1CN(C(=O)/C=C/c2ccc(SC(F)F)cc2)CC(C)O1 (stereo not drawn)	36.3 µg/mL (≈ 111 µM)
Clc1cccc(Cl)c1C1Nc2cccc3cccc(c23)N1	3 µg/mL (≈ 9.52 µM)
CCn1c(NC(=O)C(C)C)c2ccccc2nc1=O	> 38.9 µg/mL
O=C(Nc1cc(-c2ccccc2)cs1)c1ccco1	4.7 µg/mL (≈ 17.5 µM)
CCNC(=S)Nc1ccc2ncoc2c1	> 33.2 µg/mL

Compound	solubility kinetic
COc1ccc(C(=O)Nc2c(C)cc(C)cc2C)cc1OC	> 44.9 µg/mL
CN(C1(C)CCS(=O)(=O)C1)S(=O)(=O)c1cccc([N+](=O)[O-])c1 (stereo not drawn)	> 52.3 µg/mL
O=C(Nc1cc(Cl)cc(Cl)c1)c1ccno1	8.4 µg/mL (≈ 32.7 µM)
CCN(CC)P(=O)(c1ccccc1)c1c(C)nc2ccccn12 (stereo not drawn)	> 49.1 µg/mL
CNC(=O)CSc1nnc(-c2ccco2)n1-c1cc(C)ccc1C	> 51.4 µg/mL
O=C(c1ccco1)N1CCC(N2CCN(c3ccccc3)CC2)CC1	43.8 µg/mL (≈ 129 µM)
Cc1c(NS(=O)(=O)c2cc(C(=O)N(C)Cc3ccccc3)ccc2Cl)c(=O)n(-c2ccccc2)n1C	> 78.8 µg/mL
NS(=O)(=O)c1ccc(Nc2c([N+](=O)[O-])cncc2[N+](=O)[O-])cc1	50.4 µg/mL (≈ 149 µM)
Cc1ccc(NC(=S)N2CCC(NC(=O)c3ccccc3)CC2)cc1	8.8 µg/mL (≈ 24.9 µM)
O=C(O)c1cccc(S(=O)(=O)Nc2ccc(-c3ccccc3)cc2)c1	> 53 µg/mL
Cc1cc(C)nc(N/N=C/c2sccc2C)n1	> 36.9 µg/mL
Cc1cccc(C)c1NC(=S)N(CCc1ccncc1)C(C)C	45.6 µg/mL (≈ 139 µM)
COc1ccccc1Nc1nc(NCc2ccco2)c2ccccc2n1.Cl	0.4 µg/mL
O=C(Nc1nccs1)C1CCN(S(=O)(=O)c2ccccc2)CC1	43.7 µg/mL (≈ 124 µM)
CC(NC(=O)CSc1ccccc1C(=O)O)C1CC2CCC1C2 (stereo not drawn)	> 50 µg/mL
Cc1cc(=O)[nH]c(SCC(=O)NC2CCCCCCC2)n1	> 46.4 µg/mL
COc1ccc(CCNS(=O)(=O)c2ccc3c(c2)CCCC3)cc1OC	28.2 µg/mL (≈ 75.1 µM)
Cc1cccc(NC(=O)Nc2ccc(Cl)c(Cl)c2)n1	< 0.2 µg/mL
COc1ccc2[nH]cc(CCNC(=O)Cc3c(F)cccc3Cl)c2c1	3.9 µg/mL (≈ 10.8 µM)
Fc1ccc(CN2CCC(Cc3ccccc3)CC2)cc1F	8 µg/mL (≈ 26.5 µM)
C=CCN(CC=C)S(=O)(=O)c1ccc(NC(=S)NC(=O)C2CC2)cc1	7.8 µg/mL (≈ 20.6 µM)
N#Cc1ccc(-c2cccnc2)nc1SCC(N)=O	38.2 µg/mL (≈ 141 µM)
O=C(O)CC1(CC(=O)NCc2ccccn2)CCCCC1	> 43.6 µg/mL
N/C(=N\OC(=O)Cc1ccccc1)c1cccc(Br)c1	1.1 µg/mL (≈ 3.3 µM)

Compound	solubility kinetic
CCOC(=O)c1nc(Nc2cccc(C)c2)c2ccccc2n1	10.8 µg/mL (≈ 35.1 µM)
Cc1cccc(N2C(=O)CN(Cc3ccccc3)C2=S)c1	10 µg/mL (≈ 33.7 µM)
COc1ccc(Oc2ncccc2[N+](=O)[O-])cc1	> 36.9 µg/mL
COc1ccc(-c2nc(-c3ccncc3)no2)cc1	1.1 µg/mL (≈ 4.34 µM)
O=C(COC(=O)c1ccc[n+]([O-])c1)Nc1ccccc1OC(F)F	> 50.7 µg/mL
Cc1cccc(C)c1NC(=O)CNC(=O)CNC(=O)c1ccc2c(c1)OCO2	> 57.5 µg/mL
c1csc(-c2noc(CN3CCN4CCCC4C3)n2)c1 (stereo not drawn)	> 43.6 µg/mL
Cc1cccc(N(O)C(=O)Nc2cccc(Cl)c2)c1	10.2 µg/mL (≈ 36.9 µM)
Cc1nc([N+](=O)[O-])c(SCC(N)=O)n1Cc1ccccc1	> 46 µg/mL
COc1ccc(Cl)cc1N=Cc1c(O)n(C)c(=O)n(C)c1=O	2 µg/mL (≈ 6.18 µM)
Cc1ccc(NC(=S)N(CCN(C)C)C(C)c2cccnc2)cc1 (stereo not drawn)	> 51.4 µg/mL
O=C(O)CN1C(=O)C(=O)N(Cc2ccc(Cl)c(Cl)c2)C1=O	46.1 µg/mL (≈ 139 µM)
CC(C)(C)OC(=O)N1CCC(CNC(=O)Nc2ccccc2)CC1	> 50 µg/mL
NC(=O)c1ccsc1NC(=O)COC(=O)CNC(=O)c1ccc(Cl)cc1	3.4 µg/mL (≈ 8.59 µM)
COc1ccc(-n2ccnc2SCC(=O)NO)cc1	> 41.9 µg/mL
CC1CCCN(C(=O)COC(=O)COc2ccc(C#N)cc2)C1 (stereo not drawn)	> 47.5 µg/mL
COc1ccc(-c2csc(-c3ccccc3)n2)c(OC)c1	3.3 µg/mL (≈ 11.1 µM)
O=C(O)c1ccccc1C(=O)NC1CCCc2ccccc21 (stereo not drawn)	> 44.3 µg/mL
COc1cccc(C(=O)NCC2(c3ccccc3)CCCC2)c1	28.4 µg/mL (≈ 91.8 µM)
Nc1ccc(-n2cc(-c3ccccc3)[nH]c2=S)cc1	12.6 µg/mL (≈ 47.1 µM)
O=C(NCC1CCCO1)c1cc(-c2ccccc2F)no1 (stereo not drawn)	42.4 µg/mL (≈ 146 µM)
Cc1ccsc1C(=O)NCCc1ccc(S(N)(=O)=O)cc1	32.8 µg/mL (≈ 101 µM)
